Read-outs that look alike come from different tables or passages of the source.
Experiments:
[1] = Cytotoxicity assay (metabolic activity of compound-treated cells); settings: African green monkey
[2] = Lipophilicity by shake-flask method
[3] = test system: CHIKV Indian Ocean strain 899; assay: Anti-CHIKV CPE assay on Vero cells; settings: for EC50: Chikungunya virus, Vero; for SI: ratio of CC50 to EC50
CHIKV [4] = test system: CHIKV; parameters: method as in PMID 23275491; settings: CHIKV inhibition; cited from earlier work
CHIKV isolate = CHIKV isolate replication; cited from earlier work
[5] = cited from earlier work
CHIKV [6] = settings: cited from earlier work

| SMILES | CC50 [1] [µM] | logP [2] | EC50 [3] [µM] | SI [3] | other results |
| --- | --- | --- | --- | --- | --- |
| O=c1oc2cc(OS(=O)(=O)c3ccccc3)ccc2cc1CSc1nc(Nc2ccccc2)c2ccccc2n1 [Compound 2b, 2′-Oxo-3′-[([4-(phenylamino)quinazolin-2-yl]thio)methyl]-2H-chromen-7′-yl Benzenesulfonate] | 72.3 | 5.27 | 3.84 | 18.8 | fold more potent than quinazolinone conjugate 10a ([3]; EC50 comparison 2b vs 10a): 2.0 times; fold improvement of SI in comparison with 10a ([3]; SI comparison 2b vs 10a): 3.68 times |
| O=c1oc2cc(OS(=O)(=O)c3ccccc3)ccc2cc1CSc1nc2ccccc2c(=O)[nH]1 [Compound 10a, 2′-Oxo-3′-([(4-oxo-3,4-dihydroquinazolin-2-yl)thio]methyl)-2H-chromen-7′-yl Benzenesulfonate] | 40.1 | 3.52 | 7.84 | 5.11 | – |
| COc1ccc(S(=O)(=O)Oc2ccc3cc(CSc4nc5ccccc5c(=O)[nH]4)c(=O)oc3c2)cc1 [Compound 10b, 2′-Oxo-3′-([(4-oxo-3,4-dihydroquinazolin-2-yl)thio]methyl)-2H-chromen-7′-yl 4″-Methoxybenzenesulfonate] | – | 3.45 | > 186 | – | – |
| O=c1oc2cc(OS(=O)(=O)c3ccc(F)cc3)ccc2cc1CSc1nc2ccccc2c(=O)[nH]1 [Compound 10c, 2′-Oxo-3′-([(4-oxo-3,4-dihydroquinazolin-2-yl)thio]methyl)-2H-chromen-7′-yl 4″-Fluorobenzenesulfonate] | 59.7 | 3.68 | 6.46 | 9.24 | fold more potent against CHIKV than β-substituted isomer 11 ([3]; EC50 comparison 10c vs 11): ~ 3 times; fold improvement of SI in comparison with β-11 ([3]; SI comparison 10c vs 11): 5.7 times |
| O=c1oc2cc(OS(=O)(=O)c3ccc(Br)cc3)ccc2cc1CSc1nc2ccccc2c(=O)[nH]1 [Compound 10d, 2′-Oxo-3′-([(4-oxo-3,4-dihydroquinazolin-2-yl)thio]methyl)-2H-chromen-7′-yl 4″-Bromobenzenesulfonate] | 62.6 | 3.94 | 18.4 | 3.40 | – |
| O=c1oc2cc(OS(=O)(=O)c3ccccc3[N+](=O)[O-])ccc2cc1CSc1nc2ccccc2c(=O)[nH]1 [Compound 10e, 2′-Oxo-3′-([(4-oxo-3,4-dihydroquinazolin-2-yl)thio]methyl)-2H-chromen-7′-yl 2″-Nitrobenzenesulfonate] | 64.3 | 3.48 | 12.7 | 5.06 | – |
| O=c1oc2cc(OS(=O)(=O)c3ccc([N+](=O)[O-])cc3)ccc2cc1CSc1nc2ccccc2c(=O)[nH]1 [Compound 10f, 2′-Oxo-3′-([(4-oxo-3,4-dihydroquinazolin-2-yl)thio]methyl)-2H-chromen-7′-yl 4″-Nitrobenzenesulfonate] | – | 3.43 | > 186 | – | – |
| COC(=O)C[C@](O)(CCC(C)(C)O)C(=O)O[C@@H]1C(OC)=C[C@]23CCCN2CCc2cc4c(cc2[C@H]13)OCO4 [Harringtonine, harringtonine] | – | – | – | – | EC50 (CHIKV [4]): 0.24 µM |
| Cc1ccc(C(=O)Nc2ccc(S(=O)(=O)O)c3cc(S(=O)(=O)O)cc(S(=O)(=O)O)c23)cc1NC(=O)c1cccc(NC(=O)Nc2cccc(C(=O)Nc3cc(C(=O)Nc4ccc(S(=O)(=O)O)c5cc(S(=O)(=O)O)cc(S(=O)(=O)O)c45)ccc3C)c2)c1 [Suramin] | – | – | – | – | EC50 (CHIKV isolate): ~80 µM; CC50 [5]: > 5000 µM |
| O=C(NN=Cc1ccccc1)C1CC1 [benzylidene(cyclopropane)carbohydrazide] | – | – | – | – | EC50 (CHIKV [6]; CHIKV-induced CPE): 5 µM; SI (CHIKV [6]): 14 |

Reference: publication PMC9322071, “Computer-Aided Design and Synthesis of (Functionalized quinazoline)–(α-substituted coumarin)–arylsulfonate Conjugates against Chikungunya Virus” (International Journal of Molecular Sciences, 2022)
